Results: patent US9765108B2 (SHILPA MEDICARE LIMITED, priority 2012, dated 2017)
Like-named read-outs stand apart in the source and are kept apart here.

Legend:
[1] = cited from earlier work
[2] = Water content of lyophilized formulation / crystalline form; format: physicochemical; details: neat crystalline form as obtained after lyophilization, no bulking agent
Procedure: The secondary drying phase is the final segment of the lyophilization cycle, where residual moisture is removed from a formulation's interstitial matrix by desorption with elevated temperatures and/or reduced pressures. The final moisture content of a lyophilized formulation, which can be measured by Karl Fischer or other methods, is important because if the solid cake contains too much residual moisture, the stability of the active can be compromised.
Chemical stability is tested for both example 1 & it's corresponding placebo formulation by storing the lyophilized vials under various conditions: 25° C. and 60% relative humidity (“A”); 40° C. and 75% relative humidity (“B”); and 60° (“C”); for one month. Impurity analyses are done before storage (“Initial”) and after storage, and are expressed as percentages of the label 5-azacytidine content.

| Water content [2] [% w/w] | SMILES | Solubility ([1]; 5% Tween 80 in water) | Solubility ([1]; 5% dextrose in water) | Solubility ([1]; N-methylpyrrolidone) | Solubility ([1]; acetone) | Solubility ([1]; dimethylsulfoxide (DMSO)) | Solubility ([1]; ethanol and water (50:50)) | Solubility ([1]; ethanol) | Solubility ([1]; methyl ethyl ketone) | Solubility ([1]; normal saline) | Solubility ([1]; polyethylene glycol) | Solubility ([1]; propylene glycol) | Solubility ([1]; water saturated octanol) | Solubility ([1]; water) |
| --- | --- | --- | --- | --- | --- | --- | --- | --- | --- | --- | --- | --- | --- | --- |
|  | Nc1ncn([C@@H]2O[C@H](CO)[C@@H](O)[C@H]2O)c(=O)n1 [5-azacytidine, 4-amino-1-β-D-ribofuranosyl-1,3,5-triazin-2(1H)-one] | sparingly soluble | sparingly soluble | sparingly soluble | insoluble | soluble | slightly soluble | insoluble | insoluble | sparingly soluble | slightly soluble | slightly soluble | sparingly soluble | sparingly soluble |
| 0.6 | Nc1ncn([C@@H]2O[C@H](CO)[C@@H](O)[C@H]2O)c(=O)n1 [Crystalline 5-Azacytidine Form-SA-1, 5-Azacytidine] |  |  |  |  |  |  |  |  |  |  |  |  |  |
| 0.7 | Nc1ncn([C@@H]2O[C@H](CO)[C@@H](O)[C@H]2O)c(=O)n1 [Crystalline 5-Azacytidine Form-SA-2, 5-Azacytidine] |  |  |  |  |  |  |  |  |  |  |  |  |  |
